Data on eleven compounds can be found in US7414036B2, “Compounds useful as A3 adenosine receptor agonists” (Muscagen Limited, priority 2002, dated 2008).

Where “and” joins values, the source holds several entries; their conditions need not be identical. Equal values may be shown once.

One data set deals with T1, human A3 receptors (Homo sapiens, UniProt P0DMS8).
T1 construct: expressed in transfected cells; host or cells: CHO cells (membrane preparations)
T1 sequence (P0DMS8 1-318): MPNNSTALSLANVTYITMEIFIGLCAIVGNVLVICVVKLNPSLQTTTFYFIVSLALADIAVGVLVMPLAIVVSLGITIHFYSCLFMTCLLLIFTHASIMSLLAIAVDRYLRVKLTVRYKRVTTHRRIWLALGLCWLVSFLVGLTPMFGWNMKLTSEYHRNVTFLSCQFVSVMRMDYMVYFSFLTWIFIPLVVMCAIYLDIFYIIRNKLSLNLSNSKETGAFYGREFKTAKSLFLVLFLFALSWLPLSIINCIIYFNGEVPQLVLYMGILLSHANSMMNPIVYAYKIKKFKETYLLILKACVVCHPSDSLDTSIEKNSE
The data set can be described thus: A3 receptor radioligand binding, displacement of [125I]-AB-MECA. The following applies: for IC50: displacement of [125I]-AB-MECA (0.3 nM), human A3 receptors expressed in CHO cells, membranes, 60 min room temperature; for % Displacement of [125I]-AB-MECA: human A3 receptors in CHO cells.

A further data set deals with T2, A1 receptor (Cavia porcellus, UniProt P47745).
T2 construct: from tissue; host or cells: guinea-pig isolated paced left atria
T2 sequence (P47745 1-326): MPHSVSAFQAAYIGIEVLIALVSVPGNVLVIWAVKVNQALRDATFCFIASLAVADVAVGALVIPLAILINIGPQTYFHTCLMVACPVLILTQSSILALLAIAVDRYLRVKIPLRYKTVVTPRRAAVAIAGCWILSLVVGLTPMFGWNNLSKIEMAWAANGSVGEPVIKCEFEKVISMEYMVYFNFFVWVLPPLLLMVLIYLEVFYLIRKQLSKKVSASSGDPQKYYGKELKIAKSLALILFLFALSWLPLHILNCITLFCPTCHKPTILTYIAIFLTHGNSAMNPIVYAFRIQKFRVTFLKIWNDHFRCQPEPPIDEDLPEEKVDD
The experiment in a line: A1 receptor functional activity, negative inotropic response of isolated paced left atria. More on the design: species or system guinea-pig. As to conditions: for IC25, negative inotropic action at A1 receptors of guinea-pig atria: concentration for 25% of the maximum response to NECA, cumulative concentration-response curves.

A further data set has as its system A2 receptor. The experiment in a line: A2 receptor functional activity, relaxation of isolated trachea pre-contracted with carbachol. As to conditions: for IC25, relaxation at A2 receptors of guinea-pig trachea: concentration for 25% of the maximum response to NECA, trachea precontracted with carbachol (100 nM). More on the design: species or system guinea-pig.
Data set [1] has as its system guinea-pig isolated left atria. The experiment in a line: Myocardial contractile dysfunction (stunning) after simulated ischaemia of isolated atria. The procedure:
The following experiment was carried out to evaluate the efficacy of compound 6 in protecting against myocardial contractile dysfunction (stunning) after simulated ischaemia of isolated atria.
Guinea-pig isolated left atria were set up in tissue baths containing Krebs-bicarbonate solution gassed with 5% CO2 in oxygen at 37° C. and electrically paced at 2 Hz with pulses of threshold voltage +50% and 5 ms pulse width. Developed tension was recorded. After equilibrium, they were exposed to 30 min of simulated ischaemia by gassing with 5% CO2 in nitrogen and removing the glucose substrate which was replaced with choline chloride (7 mM) to maintain isotonicity. Pacing was continued throughout. After 30 min, the tissues were reoxygenated and glucose was returned. […] This partial recovery was the index of myocardial stunning. […] This timing was to simulate administration at the time of reperfusion induced by thrombolyic therapy following myocardial infarction.

Data set [2] can be described thus: pKa determination with co-solvent titrations. It counts as physicochemical. As to conditions: read-out: pKa (s).
The nature of data set [3]: Partition coefficient, propylene glycol dipelargonate (PGDP)/water model. As to conditions: 21.2 °C; for Log P(s): partition solvent propylene glycol dipelargonate (PGDP)/water, neutral species. It counts as physicochemical. An excerpt: The partition measurements were based on a long chain ester (propylene glycol dipelargonate-PGDP)/water model.
For data set [4] the following is noted: e.g. from about 70 mm Hg to about 90 mm Hg; cited from earlier work.
For data set [5] the following is noted: empiric evidence; cited from earlier work.

On human A3 receptors, `CNC(=O)[C@H]1O[C@@H](n2cnc3c(NCc4cc(C)ccn4)ncnc32)C(O)C1O` (stereo partly shown) [Compound 1, N^6-(4-methyl-2-picolyl)-adenosine-5′-N-methyluronamide] returned an IC50 of 2.2 nM.

`CNC(=O)[C@H]1O[C@@H](n2cnc3c(NCc4ccccn4)ncnc32)C(O)C1O` (stereo partly shown) [Compound 3, N^6-(2-picolyl)adenosine-5′-N-methyluronamide]: the melting point was in the range of 84 to 86 °C. This compound also gave an IC50 at human A3 receptors of 6 nM.

For the compound `CNC(=O)[C@H]1O[C@@H](n2cnc3c(NCc4cccc(C(C)=O)n4)ncnc32)C(O)C1O` (stereo partly shown) [Compound 4, N^6-(6-acetyl-2-picolyl)adenosine-5′-N-methyluronamide], the melting point was 226 to 228 °C. This compound registered an IC50 at human A3 receptors of 0.4 nM.

In the case of `CNC(=O)[C@H]1O[C@@H](n2cnc3c(NCc4cc(I)ccn4)nc(C#Cc4ccccc4)nc32)[C@H](O)[C@@H]1O` [Compound 5, N^6-(4-iodo-2-picolyl)-2-(2-phenyl-1-ethynyl)-adenosine-5′-N-methyluronamide], the IC50 on human A3 receptors fell in the range of 31 to 45 nM.

In the case of `CNC(=O)[C@H]1O[C@@H](n2cnc3c(NCc4cc(I)c5oc(N(C)C)nc5c4)ncnc32)C(O)C1O` (stereo partly shown) [Compound 6, N^6-[(2-dimethylamino-7-iodo-1,3-benzoxazol-5-yl)-methyl]-adenosine-5′-N-methyluronamide], the “Potency for binding to the human A3 receptor (in words)” value on human A3 receptors is recorded as “picomolar potency”. For the same compound, the “% Displacement of [125I]-AB-MECA” value amounted to 94% on human A3 receptors (Concentration (Log M) −7); 79% at human A3 receptors (Concentration (Log M) −9); 73% at human A3 receptors (Concentration (Log M) −10); 68% on human A3 receptors (Concentration (Log M) −11); 47% at human A3 receptors (Concentration (Log M) −12). Moreover, at human A3 receptors (comparison of IC50 values of Table 1), the “A3 binding potency compared with IB-MECA” value is “approximately two orders of magnitude more potent”. Further, the IC50 on human A3 receptors is 0.0016 nM; at A1 receptor (read-out: IC50, negative inotropic action at A1 receptors of guinea-pig atria), 10000 nM. The “IC25, negative inotropic action at A1 receptors of guinea-pig atria” value against A1 receptor was 1000 nM. The “Selectivity for A3 receptors (radioligand binding) against A1 receptors (negative inotropy)” value at A1 receptor (ratio of atrial functional value to A3 binding IC50) is listed as 6.25×10^6. Further, the “IC25, relaxation at A2 receptors of guinea-pig trachea” value in the data set with A2 receptor was 9070 nM. The “Selectivity for A3 receptors (radioligand binding) against A2 receptors (tracheal relaxation)” value with A2 receptor (ratio of tracheal functional value to A3 binding IC50) is given as 5.6×10^6. Moreover, the “Maximum developed contractile tension (%), Post-ischaemic, Mean” value is listed as 84.0% in data set [1] (Compound 6 5 × 10^−9 M at reoxygenation, % of pre-ischaemic value, n=3) and 84.0±18.0% in data set [1] (Compound 6 5 × 10^−9 M at reoxygenation, % of pre-ischaemic value, n=3, listed as compound 6). In addition, the “Maximum developed contractile tension, Post-ischaemic” value in data set [1] (Compound 6 5 × 10^−9 M introduced at reoxygenation after 30 min simulated ischaemia, single experiments) is 0.72 g and 0.42 g and 0.40 g. Besides, the pKa in data set [2] was determined as 3.66 ± 0.03. The “Log D” value in [3] (partition solvent PGDP/water) worked out at 1.483. In addition, the entries for the “Log P(s)” value in data set [3] and in [3] (listed as compound 10) were 1.484 and 1.48±0.03, respectively.

Compound `CNC(=O)[C@H]1O[C@@H](n2cnc3c(NCc4ccc5oc(N(C)C)nc5c4)ncnc32)C(O)C1O` (stereo partly shown) [Compound 7, N^6-[(2-Dimethylamino-1,3-benzoxazol-5-yl)-methyl]-adenosine-5′-N-methyluronamide] returned a melting point of 239 to 241 °C. On human A3 receptors, this compound gave an IC50 of 450 nM. Moreover, the pKa in [2] was 3.61.

The compound `CNC(=O)[C@H]1O[C@@H](n2cnc3c(NCc4cc(I)c5oc(N(C)C)nc5c4)nc(C#Cc4ccccc4)nc32)[C@H](O)[C@@H]1O` [Compound 8, N^6-[(2-dimethylamino-7-iodo-1,3-benzoxazol-5-yl)-methyl]-2-(2-phenyl-1-ethynyl)-adenosine-5′-N-methyluronamide] returned an IC50 at human A3 receptors of 21 to 80 nM.

With `CNC(=O)[C@H]1O[C@@H](n2cnc3c(NCc4cccc(I)c4)ncnc32)[C@H](O)[C@@H]1O` [IB-MECA], the “Maximum developed contractile tension (%), Post-ischaemic, Mean” value in [1] (IB-MECA 3 × 10^−7 M at reoxygenation, % of pre-ischaemic value, 6 experiments) was 66.5±6.5% and 66.5%. The “Maximum developed contractile tension (%), Post-ischaemic” value in data set [1] (IB-MECA 3 × 10^−7 M at reoxygenation, % of pre-ischaemic value, single experiments) was 83.3% and 45.5% and 60% and 63% and 87.5%. Also, in [4], the “Increase in basal or systemic blood pressure” value is 10-30%.

For the compound `CCNC(=O)[C@H]1O[C@@H](n2cnc3c(N)ncnc32)[C@H](O)[C@@H]1O` [NECA, N-ethylcarboxamidoadenosine, reference compound], at A1 receptor, the “IC25, negative inotropic action at A1 receptors of guinea-pig atria” value stood at 52 nM. The “IC25, relaxation at A2 receptors of guinea-pig trachea” value with A2 receptor worked out at 940 nM.

Take `CC(C)NCC(O)COc1cccc2ccccc12` (stereo not shown) [propranolol]: the “Effective partition after allowing for protonation, log10 PGDP/H2O scale” value in data set [5] was around 0.8.

The compound “N^6-(4-iodo-2-picolyl)-adenosine-5′-N-methyluronamide [Compound 2]” registered an IC50 at human A3 receptors of 0.45 nM.
